Measurements reported in ChEMBL document CHEMBL3885881, “DrugMatrix”.

Species on record: Rattus norvegicus
Test: DrugMatrix - Regimen: Daily Repeat
Type: toxicity, organism-based, Sprague-Dawley
Parameters: regimen Daily Repeat, gender Male, age 6-8 weeks
Conditions: in vivo, po, 10 mg/kg, route oral GAVAGE, dose level Low, […]; for ABSOLUTE BASOPHIL / ABSOLUTE EOSINOPHIL / ABSOLUTE LYMPHOCYTE / ABSOLUTE MONOCYTE / ABSOLUTE SEGMENTED NEUTROPHIL / BASOPHIL / EOSINOPHIL / HEMATOCRIT / HEMOGLOBIN / LEUKOCYTE COUNT / LYMPHOCYTE / MEAN CORPUSCULAR HEMOGLOBIN / MEAN CORPUSCULAR HEMOGLOBIN CONCENTRATION / MEAN CORPUSCULAR VOLUME / MONOCYTE / NEUTROPHIL / NUCLEATED RED BLOOD CELLS / PLATELET COUNT: tissue Blood; for ALANINE AMINOTRANSFERASE / ALBUMIN / ALKALINE PHOSPHATASE / ASPARTATE AMINOTRANSFERASE / BLOOD UREA NITROGEN / CARBON DIOXIDE / CHLORIDE / CHOLESTEROL / CREATINE PHOSPHOKINASE / CREATININE / GLUCOSE / LIPASE / PHOSPHORUS / POTASSIUM / SODIUM / TOTAL BILIRUBIN / TOTAL PROTEIN / URIC ACID: tissue Plasma

## CN1CCN2c3ccccc3Cc3ccccc3C2C1 (configuration not stated) [MIANSERIN]
72 h, time 3 day
  ABSOLUTE BASOPHIL: 0 CELLS/uL
  ABSOLUTE EOSINOPHIL: 54.33 CELLS/uL
  ABSOLUTE LYMPHOCYTE: 11772.33 CELLS/uL
  ABSOLUTE MONOCYTE: 287.33 CELLS/uL
  ABSOLUTE SEGMENTED NEUTROPHIL: 1319.33 CELLS/uL
  BASOPHIL: 0%
  EOSINOPHIL: 0.33%
  HEMATOCRIT: 34.47%
  HEMOGLOBIN: 13.1 G/DL
  LEUKOCYTE COUNT: 13.43 x10E3/uL
  LYMPHOCYTE: 88.33%
  MEAN CORPUSCULAR HEMOGLOBIN: 23.57 pg
  MEAN CORPUSCULAR HEMOGLOBIN CONCENTRATION: 38 G/DL
  MEAN CORPUSCULAR VOLUME: 61.97 fL
  MONOCYTE: 2%
  NEUTROPHIL: 9.33%
  NUCLEATED RED BLOOD CELLS: 0 /100WBC
  PLATELET COUNT: 1172 x10E3/uL
  ALANINE AMINOTRANSFERASE: 74.67 u/L
  ALBUMIN: 4.4 G/DL
  ALKALINE PHOSPHATASE: 433.33 u/L
  ASPARTATE AMINOTRANSFERASE: 111 u/L
  BLOOD UREA NITROGEN: 16.33 mg/dL
  CARBON DIOXIDE: 20.67 mmol/L
  CHLORIDE: 107 MEQ/L
  CHOLESTEROL: 81 mg/dL
  CREATINE PHOSPHOKINASE: 603 u/L
  CREATININE: 0.28 mg/dL
  GLUCOSE: 162.67 mg/dL
  LIPASE: 12 u/L
  PHOSPHORUS: 12.3 mg/dL
  POTASSIUM: 6.52 MEQ/L
  SODIUM: 150.33 MEQ/L
  TOTAL BILIRUBIN: 0.27 mg/dL
  TOTAL PROTEIN: 6.23 G/DL
  URIC ACID: 1.93 mg/dL
120 h, time 5 day
  ABSOLUTE BASOPHIL: 0 CELLS/uL
  ABSOLUTE EOSINOPHIL: 0 CELLS/uL
  ABSOLUTE LYMPHOCYTE: 13210.67 CELLS/uL
  ABSOLUTE MONOCYTE: 71.33 CELLS/uL
  ABSOLUTE SEGMENTED NEUTROPHIL: 1118 CELLS/uL
  BASOPHIL: 0%
  EOSINOPHIL: 0%
  HEMATOCRIT: 37.27%
  HEMOGLOBIN: 13.67 G/DL
  LEUKOCYTE COUNT: 14.4 x10E3/uL
  LYMPHOCYTE: 92%
  MEAN CORPUSCULAR HEMOGLOBIN: 23.9 pg
  MEAN CORPUSCULAR HEMOGLOBIN CONCENTRATION: 36.73 G/DL
  MEAN CORPUSCULAR VOLUME: 65.03 fL
  MONOCYTE: 0.33%
  NEUTROPHIL: 7.67%
  NUCLEATED RED BLOOD CELLS: 0 /100WBC
  PLATELET COUNT: 1241.33 x10E3/uL
  ALANINE AMINOTRANSFERASE: 77.67 u/L
  ALBUMIN: 4.3 G/DL
  ALKALINE PHOSPHATASE: 439.33 u/L
  ASPARTATE AMINOTRANSFERASE: 87.33 u/L
  BLOOD UREA NITROGEN: 16.67 mg/dL
  CARBON DIOXIDE: 24.67 mmol/L
  CHLORIDE: 105.33 MEQ/L
  CHOLESTEROL: 62 mg/dL
  CREATINE PHOSPHOKINASE: 238.33 u/L
  CREATININE: 0.16 mg/dL
  GLUCOSE: 176.33 mg/dL
  LIPASE: 11 u/L
  PHOSPHORUS: 13.77 mg/dL
  POTASSIUM: 7.05 MEQ/L
  SODIUM: 148.43 MEQ/L
  TOTAL BILIRUBIN: 0.23 mg/dL
  TOTAL PROTEIN: 6.13 G/DL
  URIC ACID: 2.37 mg/dL
